SMILES strings stand for the structures.

The target of the test is T1, human EP3 receptor (Homo sapiens, UniProt P43115).
T1 construct: expressed in transfected cells; host or cells: CHO K1 (Chinese Hamster Ovary), stably co-transfected with Galpha16 and mitochondrial clytin
T1 sequence (P43115 1-390): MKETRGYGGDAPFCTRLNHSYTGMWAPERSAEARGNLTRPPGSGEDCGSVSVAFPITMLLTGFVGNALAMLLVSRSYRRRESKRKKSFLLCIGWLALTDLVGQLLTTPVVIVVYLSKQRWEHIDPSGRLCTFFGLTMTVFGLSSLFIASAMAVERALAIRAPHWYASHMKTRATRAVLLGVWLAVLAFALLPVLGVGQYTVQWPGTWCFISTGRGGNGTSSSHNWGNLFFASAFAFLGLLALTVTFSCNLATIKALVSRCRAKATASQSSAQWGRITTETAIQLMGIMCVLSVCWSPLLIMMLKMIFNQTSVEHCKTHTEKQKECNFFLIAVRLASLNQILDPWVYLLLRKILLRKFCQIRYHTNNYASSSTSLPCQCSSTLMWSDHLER
The test is described as follows: Cellular in vitro assay for determining EP3 receptor activity (human EP3 cell line, sulprostone-stimulated calcium luminescence). It is filed as cell-based. The conditions noted are these: CHO cells expressing human EP3 and mitochondrial Clytin; antagonist mode, sulprostone at EC50; read-out: EP3 CHO mtCLY ANTAG IC50. Summed up:
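CHO K1 cells stably expressing human EP3 with Gα16 and mitochondrial Clytin, loaded overnight with coelenterazine. Compounds added 10 min before sulprostone at its EC50; antagonism read immediately as reduced calcium-driven luminescence, quadruplicate points.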
As to `Cc1ccc(-c2cn3nc(C(=O)NC4(c5ccc(F)cc5)CN(C)C4)c(C(C)C)c3c(=O)[nH]2)cc1C` [Example 1-91, 6-(3,4-Dimethylphenyl)-N-[3-(4-fluorophenyl)-1-methylazetidin-3-yl]-4-oxo-3-(propan-2-yl)-4,5-dihydropyrazolo[1,5-a]pyrazine-2-carboxamide], the IC50 was 0.915 nM. Turning to `Cc1ccc(-c2cn3nc(C(=O)N[C@H](CCO)c4ccc(F)cc4)c(C(C)C)c3c(=O)[nH]2)cc1C` [Example 1-92, 6-(3,4-Dimethylphenyl)-N-[(1R)-1-(4-fluorophenyl)-3-hydroxpropyl]-4-oxo-3-(propan-2-yl)-4,5-dihydropyrazolo[1,5-a]pyrazine-2-carboxamide], the half-inhibitory concentration (IC50) was found to be 0.625 nM. `Cc1ccc(-c2cn3nc(C(=O)NC4(c5ccc(F)cc5)CN(C)C4)c(C(F)(F)F)c3c(=O)[nH]2)cc1C` [Example 1-93, 6-(3,4-Dimethylphenyl)-N-[3-(4-fluorophenyl)-1-methylazetidin-3-yl]-4-oxo-3-(trifluoromethyl)-4,5-dihydropyrazolo[1,5-a]pyrazine-2-carboxamide]: the concentration for half-maximal inhibition (IC50) is 3.58 nM. Consider `Cc1ccc(-c2cn3nc(C(=O)N[C@H](CCO)c4ccc(F)cc4)c(C(F)(F)F)c3c(=O)[nH]2)cc1C` [Example 1-94, 6-(3,4-Dimethylphenyl)-N-[(1R)-1-(4-fluorophenyl)-3-hydroxpropyl]-4-oxo-3-(trifluoromethyl)-4,5-dihydropyrazolo[1,5-a]pyrazine-2-carboxamide], for which the IC50 is 0.765 nM.

With `Cc1ccc(-c2cn3nc(C(=O)N[C@H](C)c4ccc(F)cc4)c(C(F)(F)F)c3c(=O)[nH]2)cc1C` [Example 1-95, 6-(3,4-Dimethylphenyl)-N-[(1R)-1-(4-fluorophenyl)ethyl]-4-oxo-3-(trifluoromethyl)-4,5-dihydropyrazolo[1,5-a]pyrazine-2-carboxamide], the IC50 was 1.7 nM.

As to `CN1CC(NC(=O)c2cc3c(=O)[nH]c(-c4ccc5c(c4)CCC5)cn3n2)(c2ccc(F)cc2)C1` [Example 1-96, 6-(2,3-Dihydro-1H-inden-5-yl)-N-[3-(4-fluorophenyl)-1-methylazetidin-3-yl]-4-oxo-4,5-dihydropyrazolo[1,5-a]pyrazine-2-carboxamide], the half-inhibitory concentration (IC50) came to 2.65 nM. In the case of `O=C(N[C@H](CCO)c1ccc(F)cc1)c1cc2c(=O)[nH]c(-c3ccc4c(c3)CCC4)cn2n1` [Example 1-97, 6-(2,3-Dihydro-1H-inden-5-yl)-N-[(1R)-1-(4-fluorophenyl)-3-hydroxpropyl]-4-oxo-4,5-dihydropyrazolo[1,5-a]pyrazine-2-carboxamide], the IC50 was 0.88 nM. To `C[C@@H](NC(=O)c1cc2c(=O)[nH]c(-c3ccc4c(c3)CCC4)cn2n1)c1ccc(F)cc1` [Example 1-98, 6-(2,3-Dihydro-1H-inden-5-yl)-N-[(1R)-1-(4-fluorophenyl)ethyl]-4-oxo-4,5-dihydropyrazolo[1,5-a]-pyrazine-2-carboxamide] belongs 3.45 nM; to `CN1CC(NC(=O)c2cc3c(=O)[nH]c(-c4ccc5c(c4)CCCC5)cn3n2)(c2ccc(F)cc2)C1` [Example 1-99, N-[3-(4-Fluorophenyl)-1-methylazetidin-3-yl]-4-oxo-6-(5,6,7,8-tetrahydronaphthalen-2-yl)-4,5-dihydropyrazolo[1,5-a]pyrazine-2-carboxamide], 4 nM. For the compound `O=C(N[C@H](CCO)c1ccc(F)cc1)c1cc2c(=O)[nH]c(-c3ccc4c(c3)CCCC4)cn2n1` [Example 1-100, N-[(1R)-1-(4-Fluorophenyl)-3-hydroxypropyl]-4-oxo-6-(5,6,7,8-tetrahydronaphthalen-2-yl)-4,5-dihydropyrazolo[1,5-a]pyrazine-2-carboxamide], the IC50 came out at 0.965 nM. As for `C[C@@H](NC(=O)c1cc2c(=O)[nH]c(-c3ccc4c(c3)CCCC4)cn2n1)c1ccc(F)cc1` [Example 1-101, N-[(1R)-1-(4-Fluorophenyl)ethyl]-4-oxo-6-(5,6,7,8-tetrahydronaphthalen-2-yl)-4,5-dihydropyrazolo[1,5-a]pyrazine-2-carboxamide], the IC50 turned out to be 1.7 nM.

The values are drawn from patent US20220324865A1 (Bayer Aktiengesellschaft, priority 2018, published 2022).
